Experimental data taken from publication PMC8826726, “Selective Toxicity of Secondary Metabolites from the Entomopathogenic Bacterium Photorhabdus luminescens sonorensis against Selected Plant Parasitic Nematodes of the Tylenchina Suborder” (Microbiology Spectrum, 2022).

What was measured:
[1] = tested on: H. sonorensis; experiment: In vitro nematistatic assay (temporary paralysis), non-target species; assay type: cell-based; conditions: Heterorhabditis sonorensis; reversible paralysis, 24 h exposure
[2] = tested on: MCF-7 (breast cancer); experiment: MTT cytotoxicity assay; assay type: cell-based, human; conditions: tested at 50, 100, 200 μM, data not shown
Method: (§1) The non-cancerous HFF cells (human foreskin cells) and three human cancer cell lines, NCI-H460 (non-small cell lung cancer), SF-268 (central nervous system glioma), and MCF-7 (breast cancer) were used to evaluate the in vitro cytotoxicity of the isolated Photorhabdus SMs. The MTT (3-(4,5-dimethylthiazol-2-yl)-2,5-diphenyltetrazolium bromide) colorimetric method ([54]) was used with doxorubicin as the positive control, and DMSO as the negative control. Photorhabdus SMs were tested at 50, 100, and 200 μM concentrations, and the assays were repeated three times.

[3] = tested on: NCI-H460 (non-small cell lung cancer); experiment: MTT cytotoxicity assay; assay type: cell-based, human; conditions: tested at 50, 100, 200 μM, data not shown
Method: as §1

[4] = tested on: SF-268 (central nervous system glioma); experiment: MTT cytotoxicity assay; assay type: cell-based, human; conditions: tested at 50, 100, 200 μM, data not shown
Method: as §1

[5] = tested on: HFF cells (human foreskin cells); experiment: MTT cytotoxicity assay; assay type: cell-based; conditions: tested at 50, 100, 200 μM, data not shown
Method: as §1

SMILES: c1ccc2[nH]ccc2c1 [Indole, indole]
- EC50 [1]: > 400 µg/mL
- In vitro cytotoxicity: none even at the highest concentration tested [2]: > 200 µM
- In vitro cytotoxicity: none even at the highest concentration tested [3]: > 200 µM
- In vitro cytotoxicity: none even at the highest concentration tested [4]: > 200 µM
- In vitro cytotoxicity: none even at the highest concentration tested [5]: > 200 µM
